Reference: patent US10407409B2, “6-(5-hydroxy-1H-pyrazol-1-yl)nicotinamide inhibitors of PHD” (Takeda Pharmaceutical Company Limited, priority 2013, dated 2019)

What was measured:
[1] = biological target: PHD2 enzyme (residues 181-417) (Homo sapiens (Human), UniProt Q9GZT9); assay: Inhibition of PHD enzyme (LC/MS peptide hydroxylation assay); assay type: biochemical; conditions: PHD2 (residues 181-417) 5 nM, 60 min pre-incubation; -log(IC50), IC50 molar
Method in brief: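 PHD2 (5 nM final) preincubated with inhibitor 60 min at RT in 50 mM HEPES, 50 mM KCl, 0.5 mM TCEP, 2 uM FeCl2, 0.1 mg/ml BSA, pH 7.3. Reaction started with biotin-peptide (1 uM), 2-oxoglutarate (2 uM), ascorbate (1 mM), quenched at 60 min; hydroxylated product by LC/MS, reported as pIC50.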

[2] = tested on: HIF1a protein in H9c2 rat cardiomyocytes; assay: Cell-based HIF-alpha stabilization assay (inhibition of PHD in cells); conditions: Rattus norvegicus, H9c2, 24 h, 24 hrs compound incubation, HIF1a protein by ELISA, read-out: Inhibition of PHD in cells (pEC50) (converted)
Method in brief: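 Rat H9c2 cardiomyocytes, cultured 24 h, were treated 24 h with an 11-point serial dilution of compound. HIF1a in whole-cell lysates was quantified by ELISA as % of the maximal desferrioxamine response. EC50 came from curve fitting; EC50pos is the concentration reaching 50% of the desferrioxamine maximum.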

PHD2 enzyme (residues 181-417), sequence (Q9GZT9 181-417): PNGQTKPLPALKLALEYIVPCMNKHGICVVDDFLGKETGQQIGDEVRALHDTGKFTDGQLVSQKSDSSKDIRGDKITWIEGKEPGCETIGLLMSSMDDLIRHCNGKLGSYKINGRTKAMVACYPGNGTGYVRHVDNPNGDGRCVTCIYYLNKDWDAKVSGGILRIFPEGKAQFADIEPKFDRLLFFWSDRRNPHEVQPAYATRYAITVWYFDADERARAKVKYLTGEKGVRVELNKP

PHD Inhibition (pIC50) [1]	Structure (SMILES)	EC50 [2] [µM]
7.14	CCCNC(=O)c1ccc(-n2ncc(-c3ccc(C#N)cc3C)c2O)nc1 [Example 60, 6-(4-(4-cyano-2-methylphenyl)-5-hydroxy-1H-pyrazol-1-yl)-N-propylnicotinamide]	0.2
7.19	Cc1cc(C#N)ccc1-c1cnn(-c2ccc(C(=O)NC3(C)CC3)cn2)c1O [Example 61, 6-(4-(4-cyano-2-methylphenyl)-5-hydroxy-1H-pyrazol-1-yl)-N-(1-methylcyclopropyl)nicotinamide]	0.0794
7.14	COC[C@@H](NC(=O)c1ccc(-n2ncc(-c3ccc(C#N)cc3C)c2O)nc1)C(C)C [Example 62, (S)-6-(4-(4-cyano-2-methylphenyl)-5-hydroxy-1H-pyrazol-1-yl)-N-(1-methoxy-3-methylbutan-2-yl)nicotinamide]	0.182
7.25	Cc1cc(C#N)ccc1-c1cnn(-c2ccc(C(=O)N[C@H](C)C3CCOCC3)cn2)c1O [Example 63, (R)-6-(4-(4-cyano-2-methylphenyl)-5-hydroxy-1H-pyrazol-1-yl)-N-(1-(tetrahydro-2H-pyran-4-yl)ethyl)nicotinamide]	0.158
7.25	Cc1cc(C#N)ccc1-c1cnn(-c2ccc(C(=O)NCCC3CCOCC3)cn2)c1O [Example 64, 6-(4-(4-cyano-2-methylphenyl)-5-hydroxy-1H-pyrazol-1-yl)-N-(2-(tetrahydro-2H-pyran-4-yl)ethyl)nicotinamide]	0.158
7.08	COCC(C)(C)NC(=O)c1ccc(-n2ncc(-c3ccc(C#N)cc3C)c2O)nc1 [Example 65, 6-(4-(4-cyano-2-methylphenyl)-5-hydroxy-1H-pyrazol-1-yl)-N-(1-methoxy-2-methylpropan-2-yl)nicotinamide]	0.182
7.22	Cc1cc(C#N)ccc1-c1cnn(-c2ccc(C(=O)NCCC3CCOC3)cn2)c1O (centres unmarked) [Example 66, 6-(4-(4-cyano-2-methylphenyl)-5-hydroxy-1H-pyrazol-1-yl)-N-(2-(tetrahydrofuran-3-yl)ethyl)nicotinamide]	0.12
7.11	COCCC(C)(C)NC(=O)c1ccc(-n2ncc(-c3ccc(C#N)cc3C)c2O)nc1 [Example 67, 6-(4-(4-cyano-2-methylphenyl)-5-hydroxy-1H-pyrazol-1-yl)-N-(4-methoxy-2-methylbutan-2-yl)nicotinamide]	0.219
7.44	CO[C@H]1CC[C@H](NC(=O)c2ccc(-n3ncc(-c4ccc(C#N)cc4C)c3O)nc2)CC1 [Example 68, 6-(4-(4-cyano-2-methylphenyl)-5-hydroxy-1H-pyrazol-1-yl)-N-((1r,4r)-4-methoxycyclohexyl)nicotinamide]	0.0501
7.22	COCCC(C)NC(=O)c1ccc(-n2ncc(-c3ccc(C#N)cc3C)c2O)nc1 (centres unmarked) [Example 69, 6-(4-(4-cyano-2-methylphenyl)-5-hydroxy-1H-pyrazol-1-yl)-N-(4-methoxybutan-2-yl)nicotinamide]	0.0891
7.17	Cc1cc(C#N)ccc1-c1cnn(-c2ccc(C(=O)NCCCOCC3CC3)cn2)c1O [Example 70, 6-(4-(4-cyano-2-methylphenyl)-5-hydroxy-1H-pyrazol-1-yl)-N-(3-(cyclopropylmethoxy)propyl)nicotinamide]	0.229
7.24	Cc1cc(C#N)ccc1-c1cnn(-c2ccc(C(=O)NC(CO)C3CCOC3)cn2)c1O (centres unmarked) [Example 71, 6-(4-(4-cyano-2-methylphenyl)-5-hydroxy-1H-pyrazol-1-yl)-N-(2-hydroxy-1-(tetrahydrofuran-3-yl)ethyl)nicotinamide]	0.269
7.8	N#Cc1ccc(-c2cnn(-c3ccc(C(=O)NC4CCNCC4)cn3)c2O)cc1 [Example 72]	2.88
7.05	CC[C@H](CC#N)NC(=O)c1ccc(-n2ncc(-c3ccc(C#N)cc3)c2O)nc1 [Example 74, (R)—N-(1-cyanobutan-2-yl)-6-(4-(4-cyanophenyl)-5-hydroxy-1H-pyrazol-1-yl)nicotinamide]	3.16
7.28	N#Cc1ccc(-c2cnn(-c3ccc(C(=O)NC4CCCCC4)cn3)c2O)cc1 [Example 75, 6-(4-(4-cyanophenyl)-5-hydroxy-1H-pyrazol-1-yl)-N-cyclohexylnicotinamide]	1.7
6.68	CN1CC(NC(=O)c2ccc(-n3ncc(-c4ccc(C#N)cc4)c3O)nc2)C1 [Example 76, 6-(4-(4-cyanophenyl)-5-hydroxy-1H-pyrazol-1-yl)-N-(1-methylazetidin-3-yl)nicotinamide]	3.09
7.03	N#Cc1ccc(-c2cnn(-c3ccc(C(=O)NCC(F)(F)F)cn3)c2O)cc1 [Example 77, 6-(4-(4-cyanophenyl)-5-hydroxy-1H-pyrazol-1-yl)-N-(2,2,2-trifluoroethyl)nicotinamide]	1.26
7.07	N#Cc1ccc(-c2cnn(-c3ccc(C(=O)NCCF)cn3)c2O)cc1 [Example 78, 6-(4-(4-cyanophenyl)-5-hydroxy-1H-pyrazol-1-yl)-N-(2-fluoroethyl)nicotinamide]	1.55
7.23	CCC(C)NC(=O)c1ccc(-n2ncc(-c3ccc(C#N)cc3)c2O)nc1 (centres unmarked) [Example 80, N-(sec-butyl)-6-(4-(4-cyanophenyl)-5-hydroxy-1H-pyrazol-1-yl)nicotinamide]	1.07
7.2	N#Cc1ccc(-c2cnn(-c3ccc(C(=O)NC4CCOCC4)cn3)c2O)cc1 [Example 81, 6-(4-(4-cyanophenyl)-5-hydroxy-1H-pyrazol-1-yl)-N-(tetrahydro-2H-pyran-4-yl)nicotinamide]	4.79
6.91	N#Cc1ccc(-c2cnn(-c3ccc(C(=O)NC4CCC(F)(F)CC4)cn3)c2O)cc1 [Example 84, 6-(4-(4-cyanophenyl)-5-hydroxy-1H-pyrazol-1-yl)-N-(4,4-difluorocyclohexyl)nicotinamide]	2.24
6.94	N#Cc1ccc(-c2cnn(-c3ccc(C(=O)NC4CCN(CCO)CC4)cn3)c2O)cc1 [Example 85, 6-(4-(4-cyanophenyl)-5-hydroxy-1H-pyrazol-1-yl)-N-(1-(2-hydroxyethyl)piperidin-4-yl)nicotinamide]	2.24
7.66	CC[C@H](C)NC(=O)c1ccc(-n2ncc(-c3ccc(C#N)cc3)c2O)nc1 [Example 87, (S)—N-(sec-butyl)-6-(4-(4-cyanophenyl)-5-hydroxy-1H-pyrazol-1-yl)nicotinamide]	0.603
7.24	CC(C)OCCNC(=O)c1ccc(-n2ncc(-c3ccc(C#N)cc3)c2O)nc1 [Example 89, 6-(4-(4-cyanophenyl)-5-hydroxy-1H-pyrazol-1-yl)-N-(2-isopropoxyethyl)nicotinamide]	0.708
7.18	N#Cc1ccc(-c2cnn(-c3ccc(C(=O)NCCCN4CCOCC4)cn3)c2O)cc1 [Example 91, 6-(4-(4-cyanophenyl)-5-hydroxy-1H-pyrazol-1-yl)-N-(3-morpholinopropyl)nicotinamide]	0.933
